This is an account of results in US9168259B2 (GRÜNENTHAL GMBH, priority 2010, dated 2015).

The target in the assay is T1, KCNQ2/3 channels (Homo sapiens, UniProt O43525+O43526).
T1 construct: expressed in transfected cells
The assay is described as follows: Fluorescence assay using a voltage sensitive dye (fluorimetry). It counts as cell-based. The following applies: CHO-K1 cells expressing KCNQ2/3; for Emax: CHO-K1, plateau effect relative to saturated retigabine (50 μM) = 100%, negative values = antagonistic, read-out: Fluorimetry % efficacy (retigabine = 100%); for EC50: IC50 where % efficacy is negative, read-out: Fluorimetry EC50/IC50.

Structures are written as SMILES.

T1 sequence (O43526 whole entry): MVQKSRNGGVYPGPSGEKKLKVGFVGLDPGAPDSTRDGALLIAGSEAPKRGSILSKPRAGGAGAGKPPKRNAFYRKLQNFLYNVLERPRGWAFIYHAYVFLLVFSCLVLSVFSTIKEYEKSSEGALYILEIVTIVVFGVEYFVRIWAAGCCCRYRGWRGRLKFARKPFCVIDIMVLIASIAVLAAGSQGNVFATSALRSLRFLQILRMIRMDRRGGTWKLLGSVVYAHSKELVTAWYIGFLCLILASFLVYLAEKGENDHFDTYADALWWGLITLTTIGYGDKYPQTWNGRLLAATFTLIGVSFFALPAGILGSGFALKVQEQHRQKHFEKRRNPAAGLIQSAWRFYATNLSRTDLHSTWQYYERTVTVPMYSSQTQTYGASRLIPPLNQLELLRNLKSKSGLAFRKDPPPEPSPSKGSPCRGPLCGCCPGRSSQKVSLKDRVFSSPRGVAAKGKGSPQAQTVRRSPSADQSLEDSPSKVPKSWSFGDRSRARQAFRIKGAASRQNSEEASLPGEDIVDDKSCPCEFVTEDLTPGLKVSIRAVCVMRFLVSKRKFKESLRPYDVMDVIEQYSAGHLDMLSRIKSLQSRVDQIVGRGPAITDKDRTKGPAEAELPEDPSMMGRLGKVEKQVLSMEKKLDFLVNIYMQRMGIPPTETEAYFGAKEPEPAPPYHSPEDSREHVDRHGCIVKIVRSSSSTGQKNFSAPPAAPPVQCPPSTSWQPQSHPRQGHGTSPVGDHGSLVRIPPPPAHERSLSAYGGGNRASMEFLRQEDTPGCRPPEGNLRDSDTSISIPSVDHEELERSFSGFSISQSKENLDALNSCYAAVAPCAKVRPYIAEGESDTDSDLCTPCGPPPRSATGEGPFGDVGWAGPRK
T1 sequence (O43525 whole entry): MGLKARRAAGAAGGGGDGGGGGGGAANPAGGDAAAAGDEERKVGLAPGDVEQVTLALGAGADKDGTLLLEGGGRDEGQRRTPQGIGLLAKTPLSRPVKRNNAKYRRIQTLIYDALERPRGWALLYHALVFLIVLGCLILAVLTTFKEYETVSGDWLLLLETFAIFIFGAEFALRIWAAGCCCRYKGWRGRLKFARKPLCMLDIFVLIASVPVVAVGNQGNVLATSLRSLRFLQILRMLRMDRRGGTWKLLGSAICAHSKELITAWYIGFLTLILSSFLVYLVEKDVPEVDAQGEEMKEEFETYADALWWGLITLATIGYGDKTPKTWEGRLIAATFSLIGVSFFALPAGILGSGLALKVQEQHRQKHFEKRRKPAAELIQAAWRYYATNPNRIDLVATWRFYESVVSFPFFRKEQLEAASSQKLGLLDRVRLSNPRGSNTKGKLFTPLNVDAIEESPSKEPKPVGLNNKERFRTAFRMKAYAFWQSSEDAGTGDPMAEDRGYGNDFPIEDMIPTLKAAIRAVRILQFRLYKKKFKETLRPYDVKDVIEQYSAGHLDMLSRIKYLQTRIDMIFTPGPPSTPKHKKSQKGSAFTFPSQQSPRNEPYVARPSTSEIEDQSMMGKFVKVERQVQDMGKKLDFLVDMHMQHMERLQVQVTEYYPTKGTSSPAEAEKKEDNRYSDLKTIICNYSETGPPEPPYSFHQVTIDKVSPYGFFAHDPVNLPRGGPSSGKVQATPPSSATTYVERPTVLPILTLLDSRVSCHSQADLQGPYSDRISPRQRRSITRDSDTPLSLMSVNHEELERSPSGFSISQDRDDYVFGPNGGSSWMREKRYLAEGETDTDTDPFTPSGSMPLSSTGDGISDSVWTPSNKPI

As to `Cc1cc(N2CCOCC2)nc(N(C)C)c1C(=O)NCCCC(F)(F)F` [Example 246, 2-Dimethylamino-4-methyl-6-morpholin-4-yl-N-(4,4,4-trifluoro-butyl)-pyridine-3-carboxylic acid amide], the Emax is 173% and the EC50 was 4100 nM.
Take `CCSc1nc(N2CCOCC2)cc(C)c1C(=O)NCc1ccc(S(C)(=O)=O)cc1` [Example 247, 2-Ethylsulfanyl-4-methyl-N-[(4-methylsulfonyl-phenyl)-methyl]-6-morpholin-4-yl-pyridine-3-carboxylic acid amide]: the Emax was 38%.
As for `CCSc1nc(N2CCOC[C@H]2COC)cc(C)c1C(=O)NCc1ccc(F)cc1` [Example 248, 2-Ethylsulfanyl-N-[(4-fluorophenyl)-methyl]-6-[(3R)-3-(methoxymethyl)-morpholin-4-yl]-4-methyl-pyridine-3-carboxylic acid amide], the Emax worked out at 223% and the EC50 is 313 nM.
Consider `CCSc1nc(N2CCOC[C@@H]2COC)cc(C)c1C(=O)NCc1ccc(F)cc1` [Example 249, 2-Ethylsulfanyl-N-[(4-fluorophenyl)-methyl]-6-[(3S)-3-(methoxymethyl)-morpholin-4-yl]-4-methyl-pyridine-3-carboxylic acid amide], for which the Emax amounted to 129% and the EC50 came to 82 nM.
In the same order, the values of `Cc1cc(N2CCOCC2)nc(C(C)(C)C)c1C(=O)NCc1cccc(F)c1` [Example 250, 2-tert-Butyl-N-[(3-fluorophenyl)-methyl]-4-methyl-6-morpholin-4-yl-pyridine-3-carboxylic acid amide] are 196% and 371 nM.
`CCSc1nc(N2CCN(CC(F)(F)F)CC2)cc(C)c1C(=O)NCc1cccc(F)c1` [Example 251, 2-Ethylsulfanyl-N-[(3-fluorophenyl)-methyl]-4-methyl-6-[4-(2,2,2-trifluoro-ethyl)-piperazin-1-yl]-pyridine-3-carboxylic acid amide]: the Emax is 97% and the EC50 was 1590 nM.
`CCSc1nc(N2CCOC(C)(C)C2)cc(C)c1C(=O)NCc1cccc(F)c1` [Example 252, 6-(2,2-Dimethyl-morpholin-4-yl)-2-ethylsulfanyl-N-[(3-fluorophenyl)-methyl]-4-methyl-pyridine-3-carboxylic acid amide]: the Emax was determined as 137% and the EC50 is 274 nM.
With `CCSc1nc(N(C)CC(C)=O)cc(C)c1C(=O)NCc1cccc(F)c1` [Example 253, 2-Ethylsulfanyl-N-[(3-fluorophenyl)-methyl]-4-methyl-6-[methyl-(2-oxo-propyl)-amino]-pyridine-3-carboxylic acid amide], the Emax is 79% and the EC50 turned out to be 5740 nM.
As for `CCSc1nc(N2CCO[C@@H](COC)C2)cc(C)c1C(=O)NCc1ccc(Cl)cc1` [Example 254, N-[(4-Chlorophenyl)-methyl]-2-ethylsulfanyl-6-[(2R)-2-(methoxymethyl)-morpholin-4-yl]-4-methyl-pyridine-3-carboxylic acid amide], the Emax is 113% and the EC50 amounted to 943 nM.
In the same order, the values of `CCSc1nc(N2CCO[C@H](COC)C2)cc(C)c1C(=O)NCc1ccc(Cl)cc1` [Example 255, N-[(4-Chlorophenyl)-methyl]-2-ethylsulfanyl-6-[(2S)-2-(methoxymethyl)-morpholin-4-yl]-4-methyl-pyridine-3-carboxylic acid amide] are 121% and 169 nM.
For `CCSc1nc(N2CCOC[C@H]2COC)cc(C)c1C(=O)NCc1ccc(Cl)cc1` [Example 256, N-[(4-Chlorophenyl)-methyl]-2-ethylsulfanyl-6-[(3R)-3-(methoxymethyl)-morpholin-4-yl]-4-methyl-pyridine-3-carboxylic acid amide], the Emax turned out to be 221% and the EC50 came to 101 nM.
In the same order, the values of `CCSc1nc(N2CCOC[C@@H]2COC)cc(C)c1C(=O)NCc1ccc(Cl)cc1` [Example 257, N-[(4-Chlorophenyl)-methyl]-2-ethylsulfanyl-6-[(3S)-3-(methoxymethyl)-morpholin-4-yl]-4-methyl-pyridine-3-carboxylic acid amide] are 125% and 23 nM.
Take `CCSc1nc(N(C)C2CCOCC2)cc(C)c1C(=O)NCc1cccc(F)c1` [Example 258, 2-Ethylsulfanyl-N-[(3-fluorophenyl)-methyl]-4-methyl-6-(methyl-tetrahydro-pyran-4-yl-amino)-pyridine-3-carboxylic acid amide]: the Emax was 170% and the EC50 is 301 nM.
In the same order, the values of `CCSc1nc(N(C)C2CCC(OC)CC2)cc(C)c1C(=O)NCc1cccc(F)c1` (stereo not shown) [Example 259, 2-Ethylsulfanyl-N-[(3-fluorophenyl)-methyl]-6-[(4-methoxy-cyclohexyl)-methyl-amino]-4-methyl-pyridine-3-carboxylic acid amide] are 133% and 298 nM.
In the same order, the values of `CCSc1nc(N2CCOC(C(F)(F)F)C2)cc(C)c1C(=O)NCc1cccc(F)c1` (stereo not shown) [Example 260, 2-Ethylsulfanyl-N-[(3-fluorophenyl)-methyl]-4-methyl-6-[2-(trifluoromethyl)-morpholin-4-yl]-pyridine-3-carboxylic acid amide] are 127% and 149 nM.
Consider `CCSc1nc(N(C)C2CCCOC2)cc(C)c1C(=O)NCc1cccc(F)c1` (stereo not shown) [Example 261, 2-Ethylsulfanyl-N-[(3-fluorophenyl)-methyl]-4-methyl-6-(methyl-tetrahydro-pyran-3-yl-amino)-pyridine-3-carboxylic acid amide], for which the Emax was determined as 96% and the EC50 is 786 nM.
In the case of `CCSc1nc(N2C(C)COCC2C)cc(C)c1C(=O)NCc1cccc(F)c1` (stereo not shown) [Example 262, 6-(3,5-Dimethyl-morpholin-4-yl)-2-ethylsulfanyl-N-[(3-fluorophenyl)-methyl]-4-methyl-pyridine-3-carboxylic acid amide], the Emax was 182% and the EC50 worked out at 374 nM.
On to `CCSc1nc(N2CCOC[C@@H]2CO)cc(C)c1C(=O)NCc1cccc(F)c1` [Example 263, 2-Ethylsulfanyl-N-[(3-fluorophenyl)-methyl]-6-[(3S)-3-(hydroxymethyl)-morpholin-4-yl]-4-methyl-pyridine-3-carboxylic acid amide], for which the Emax turned out to be 114% and the EC50 was 4140 nM.
For the molecule `CCSc1nc(N2CCOC[C@H]2CO)cc(C)c1C(=O)NCc1cccc(F)c1` [Example 264, 2-Ethylsulfanyl-N-[(3-fluorophenyl)-methyl]-6-[(3R)-3-(hydroxymethyl)-morpholin-4-yl]-4-methyl-pyridine-3-carboxylic acid amide], the Emax stood at 184% and the EC50 came to 1560 nM.
Take `Cc1cc(N2CCOC[C@H]2C)nc(C(C)C)c1C(=O)NCc1ccc(Cl)cc1` [Example 265, N-[(4-Chlorophenyl)-methyl]-2-isopropyl-4-methyl-6-[(3R)-3-methyl-morpholin-4-yl]-pyridine-3-carboxylic acid amide]: the Emax worked out at 206% and the EC50 amounted to 28 nM.
For `CCCc1nc(N2CCOC[C@H]2C)cc(C)c1C(=O)NCc1ccc(Cl)cc1` [Example 266, N-[(4-Chlorophenyl)-methyl]-4-methyl-6-[(3R)-3-methyl-morpholin-4-yl]-2-propyl-pyridine-3-carboxylic acid amide], the Emax was determined as 210% and the EC50 worked out at 57 nM.
`CCSc1nc(N2CCOCC2)cc(C)c1C(=O)NCCC(O)C(C)(C)C` (stereo not shown) [Example 267, 2-Ethylsulfanyl-N-(3-hydroxy-4,4-dimethyl-pentyl)-4-methyl-6-morpholin-4-yl-pyridine-3-carboxylic acid amide]: the Emax amounted to 223% and the EC50 was 247 nM.
The corresponding values for `CCSc1nc(N2CCOCC2)cc(C)c1C(=O)NCc1ccc(C#N)c(F)c1` [Example 268, N-[(4-Cyano-3-fluoro-phenyl)-methyl]-2-ethylsulfanyl-4-methyl-6-morpholin-4-yl-pyridine-3-carboxylic acid amide] are 142% and 286 nM.
Take `Cc1cc(N2CCOCC2)nc(OCCF)c1C(=O)NCc1ccc(Cl)cc1` [Example 269, N-[(4-Chlorophenyl)-methyl]-2-(2-fluoro-ethoxy)-4-methyl-6-morpholin-4-yl-pyridine-3-carboxylic acid amide]: the Emax came out at 119% and the EC50 amounted to 147 nM.
The corresponding values for `Cc1cc(N2CCOCC2)nc(OCC(F)F)c1C(=O)NCc1ccc(Cl)cc1` [Example 270, N-[(4-Chlorophenyl)-methyl]-2-(2,2-difluoro-ethoxy)-4-methyl-6-morpholin-4-yl-pyridine-3-carboxylic acid amide] are 97% and 24 nM.
Take `Cc1cc(N2CCOCC2)nc(OCC2CC2)c1C(=O)NCc1ccc(Cl)cc1` [Example 271, N-[(4-Chlorophenyl)-methyl]-2-(cyclopropyl-methoxy)-4-methyl-6-morpholin-4-yl-pyridine-3-carboxylic acid amide]: the Emax is 128% and the EC50 came to 93 nM.
The corresponding values for `Cc1cc(N2CCOCC2)nc(OCC(F)F)c1C(=O)NCc1ccc(F)cc1` [Example 272, 2-(2,2-Difluoro-ethoxy)-N-[(4-fluorophenyl)-methyl]-4-methyl-6-morpholin-4-yl-pyridine-3-carboxylic acid amide] are 96% and 78 nM.
For the molecule `CCOc1nc(N2CCOC[C@H]2C)cc(C)c1C(=O)NCc1ccc(Cl)cc1` [Example 273, N-[(4-Chlorophenyl)-methyl]-2-ethoxy-4-methyl-6-[(3R)-3-methyl-morpholin-4-yl]-pyridine-3-carboxylic acid amide], the Emax was 163% and the EC50 came out at 137 nM.
